Source: US20140073634A1 (Institute For Applied Cancer Science/The University of …, priority 2012, published 2014)
Where a name gives a salt, the structure may show the parent alone.

Test system: 293T-HRE-GFP-luc cells
Assay: Cell-based reporter assay for IC50 determinations (HRE-luciferase, hypoxia)
Details: 6 hrs hypoxia (1% O2), luminescence
Experimental: Cell-Based Reporter Assay for IC50 Determinations
293T-HRE-GFP-luc cells were routinely maintained in DMEM media (high glucose version with GlutaMAX and HEPES, Gibco, catalog #10564) supplemented with 10% fetal bovine serum and 2 μg/mL puromycin (Invitrogen, catalog #A11138-03) using a humidified incubator (normoxia conditions consisting of 37° C., 5% CO2 and ambient O2).
In preparation for the reporter assay, cells were harvested and resuspended in DMEM media (high glucose version with GlutaMAX and HEPES) supplemented with 10% fetal bovine serum. Cells were inoculated into 384-well white Culturplates (Perkin Elmer catalog #6007680) at a density of 12,000 cells/well in a volume of […]. The microplates were incubated overnight (approximately 17-19 hours) at 37° C. with 5% CO2 and ambient O2. Stock solutions of the test compounds were prepared in DMSO (Sigma, Catalog #D2650) and serially diluted 1:3 using DMSO. Compounds were additionally diluted (1:50) with culturemedium and 10 µL were added per well to the Culturplate. Following a 30 min. incubation under normoxia conditions, the plates were incubated in hypoxia for 6 hrs. (37° C., 5% CO2 and 1% O2). Steadylite Plus (Perkin Elmer, catalog #6016751) was then added ([…]), the plates were mixed on an orbital shaker at room temperature in the dark for 15 min., and luminescence was measured using an Envision plate reader (Perkin Elmer). IC50 values were calculated using a four-parameter logistic curve fit. Results are shown below in Table 2; ND indicates no data.

| Compound | IC50 [nM] | IC50 (6 h) [nM] |
| --- | --- | --- |
| O=c1ccc(-c2nc(-c3ccc(OC(F)(F)F)cc3)no2)cn1Cc1cccc(C(O)CO)c1 (single isomer, unassigned) [Example 53a, (1R)- or (1S)-1-(3-(1,2-dihydroxyethyl)benzyl)-5-(3-(4-(trifluoromethoxy)phenyl)-1,2,4-oxadiazol-5-yl)pyridin-2(1H)-one] | < 100 | – |
| O=c1ccc(-c2nc(-c3ccc(OC(F)(F)F)cc3)no2)cn1Cc1cccc(C(O)CO)c1 (single isomer, unassigned) [Example 53b, (1S)- or (1R)-1-(3-(1,2-dihydroxyethyl)benzyl)-5-(3-(4-(trifluoromethoxy)phenyl)-1,2,4-oxadiazol-5-yl)pyridin-2(1H)-one] | < 100 | – |
| O=c1ccc(-c2nc(-c3ccc(OC(F)(F)F)cc3)no2)cn1Cc1cccc(OCC(O)CO)c1 (single isomer, unassigned) [Example 55a, (2R)- or (2S)-1-(3-(2,3-dihydroxypropoxy)benzyl)-5-(3-(4-(trifluoromethoxy)phenyl)-1,2,4-oxadiazol-5-yl)pyridin-2(1H)-one] | < 100 | – |
| O=c1ccc(-c2nc(-c3ccc(OC(F)(F)F)cc3)no2)cn1Cc1cccc(OCC(O)CO)c1 (single isomer, unassigned) [Example 55b, (2S)- or (2R)-1-(3-(2,3-dihydroxypropoxy)benzyl)-5-(3-(4-(trifluoromethoxy)phenyl)-1,2,4-oxadiazol-5-yl)pyridin-2(1H)-one] | < 100 | – |
| O=c1ccc(-c2nc(-c3ccc(OC(F)(F)F)cc3)no2)nn1Cc1ccnc(N2CCNCC2)c1 [Example 1] | – | < 100 |
| CN1CCN(c2cc(Cn3nc(-c4nc(-c5ccc(OC(F)(F)F)cc5)no4)ccc3=O)ccn2)CC1 [Example 2] | – | < 100 |
| CN1CCN(c2cc(Cn3nc(C(=O)Nc4ccc(OC(F)(F)F)cc4)ccc3=O)ccn2)CC1 [Example 3, 1-(2-(4-Methylpiperazin-1-yl)pyridin-4-yl)methyl)-6-oxo-N-(4-(trifluoromethoxy)phenyl)-1,6-dihydropyridazine-3-carboxamide bis trifluoroacetate salt] | – | 100 to 1000 |
| CN1CCN(c2cccc(Cn3nc(C(=O)Nc4ccc(OC(F)(F)F)cc4)ccc3=O)c2)CC1 [Example 4, 1-(3-(4-Methylpiperazin-1-yl)benzyl)-6-oxo-N-(4-(trifluoromethoxy)phenyl)-1,6-dihydropyridazine-3-carboxamide trifluoroacetate salt] | – | < 100 |
| Cc1ccc(-c2nc(-c3ccc(OC(F)(F)F)cc3)no2)c(=O)n1Cc1ccnc(N2CCN(C)CC2)c1 [Example 5, 1-methyl-4-(4-((6-methyl-2-oxo-3-(3-(4-(trifluoromethoxy)phenyl)-1,2,4-oxadiazol-5-yl)pyridin-1(2H)-yl)methyl)pyridin-1-ium-2-yl)piperazin-1-ium bis-trifluoroacetate] | – | < 100 |
| Cc1ccc(-c2nc(-c3ccc(OC(F)(F)F)cc3)no2)c(=O)n1Cc1cccc(N2CCN(C)CC2)c1 [Example 6, 1-Methyl-4-(3-((6-methyl-2-oxo-3-(3-(4-(trifluoromethoxy)phenyl)-1,2,4-oxadiazol-5-yl)pyridin-1(2H)-yl)methyl)phenyl)piperazin-1-ium trifluoroacetate] | – | < 100 |
| Cc1ccc(C(=O)Nc2ccc(OC(F)(F)F)cc2)c(=O)n1Cc1ccnc(N2CCN(C)CC2)c1 [Example 8, 1-methyl-4-(4-((6-methyl-2-oxo-3-((4-(trifluoromethoxy)phenyl)carbamoyl)pyridin-1(2H)-yl)methyl)pyridin-1-ium-2-yl)piperazin-1-ium bis-trifluoroacetate] | – | < 100 |
| CN1CCN(c2cc(Cn3cccc(C(=O)Nc4ccc(OC(F)(F)F)cc4)c3=O)ccn2)CC1 [Example 9, 1-methyl-4-(4-((2-oxo-3-((4-(trifluoromethoxy)phenyl)carbamoyl)pyridin-1(2H)-yl)methyl)pyridin-1-ium-2-yl)piperazin-1-ium bis-trifluoroacetate] | – | 100 to 1000 |
| Cc1ccc(C(=O)Nc2ccc(OC(F)(F)F)cc2)c(=O)n1Cc1cccc(N2CCN(C)CC2)c1 [Example 10, 1-Methyl-4-(3-((6-methyl-2-oxo-3-((4-(trifluoromethoxy)phenyl)carbamoyl)pyridin-1(2H)-yl)methyl)phenyl)piperazin-1-ium trifluoroacetate] | – | < 100 |
| CN1CCN(c2cccc(Cn3cccc(C(=O)Nc4ccc(OC(F)(F)F)cc4)c3=O)c2)CC1 [Example 11, 1-Methyl-4-(3-((2-oxo-3-((4-(trifluoromethoxy)phenyl)carbamoyl)pyridin-1(2H)-yl)methyl)phenyl)piperazin-1-ium trifluoroacetate] | – | < 100 |
| O=c1ccc(-c2nc(-c3ccc(OC(F)(F)F)cc3)no2)nn1Cc1ccnc(N2CCOCC2)c1 [Example 12, 2-((2-Morpholinopyridin-4-yl)methyl)-6-(3-(4-(trifluoromethoxy)phenyl)-1,2,4-oxadiazol-5-yl)pyridazin-3(2H)-one] | – | < 100 |
| CN1CCN(c2cccc(Cn3nc(-c4nc(-c5ccc(OC(F)(F)F)cc5)no4)ccc3=O)c2)CC1 [Example 13, 2-(3-(4-Methylpiperazin-1-yl)benzyl)-6-(3-(4-(trifluoromethoxy)phenyl)-1,2,4-oxadiazol-5-yl)pyridazin-3(2H)-one] | – | < 100 |
| O=c1ccc(-c2nc(-c3ccc(OC(F)(F)F)cc3)no2)nn1Cc1cccc(N2CCOCC2)c1 [Example 14, 2-(3-Morpholinobenzyl)-6-(3-(4-(trifluoromethoxy)phenyl)-1,2,4-oxadiazol-5-yl)pyridazin-3(2H)-one] | – | < 100 |
| Cc1ccc(-c2nc(-c3ccc(OC(F)(F)F)cc3)no2)c(=O)n1Cc1ccnc(N2CCCCC2)c1 [Example 15, 4-((6-Methyl-2-oxo-3-(3-(4-(trifluoromethoxy)phenyl)-1,2,4-oxadiazol-5-yl)pyridin-1(2H)-yl)methyl)-2-(piperidin-1-yl)pyridin-1-ium trifluoroacetate] | – | < 100 |
| Cc1ccc(-c2nc(-c3ccc(OC(F)(F)F)cc3)no2)c(=O)n1Cc1ccnc(N2CCCC2)c1 [Example 16, 4-((6-methyl-2-oxo-3-(3-(4-(trifluoromethoxy)phenyl)-1,2,4-oxadiazol-5-yl)pyridin-1(2H)-yl)methyl)-2-(pyrrolidin-1-yl)pyridin-1-ium trifluoroacetate] | – | < 100 |
| COCCCNc1cc(Cn2c(C)ccc(-c3nc(-c4ccc(OC(F)(F)F)cc4)no3)c2=O)ccn1 [Example 17, 2-((3-Methoxypropyl)amino)-4-((6-methyl-2-oxo-3-(3-(4-(trifluoromethoxy)phenyl)-1,2,4-oxadiazol-5-yl)pyridin-1(2H)-yl)methyl)pyridin-1-ium trifluoroacetate] | – | 100 to 1000 |
| Cc1ccc(-c2nc(-c3ccc(OC(F)(F)F)cc3)no2)c(=O)n1Cc1ccnc(N2CCOCC2)c1 [Example 18, 4-((6-Methyl-2-oxo-3-(3-(4-(trifluoromethoxy)phenyl)-1,2,4-oxadiazol-5-yl)pyridin-1(2H)-yl)methyl)-2-morpholinopyridin-1-ium trifluoroacetate] | – | < 100 |
| Cc1cnc(-c2nc(-c3ccc(OC(F)(F)F)cc3)no2)nc1Cc1cccc(N2CCN(C)CC2)c1 [Example 19, 5-(5-methyl-4-(3-(4-methylpiperazin-1-yl)benzyl)pyrimidin-2-yl)-3-(4-(trifluoromethoxy)phenyl)-1,2,4-oxadiazole] | – | < 100 |
